Measured values: patent US4146721A, “Pyrazol-4-acetic acid compounds” (priority 1970, dated 1979)
Read-outs that look alike come from different tables or passages of the source.

Tests used:
[1] = test system: Carrageenin edema of the rear paw of the rat; experiment: Carrageenin edema of the rear paw (antiphlogistic effect); format: in vivo; settings: for Retardation of the Carrageenin Edema, Relative Effect: Phenylbutazon = 1.0; for ED40: read-out: Retardation of the Carrageenin Edema by 40% by mg/kg oral
[2] = test system: ultraviolet erythema of the skin on the back of the guinea pig; experiment: Ultraviolet erythema of the skin on the back (antiphlogistic effect); format: in vivo; settings: for ED50: Cavia porcellus, read-out: Retardation of the UV-Erythema by 50% by mg/kg oral; for Retardation of the UV-Erythema, Relative Effect: Phenylbutazon = 1.0
rat = experiment: Lowering of the normal temperature of the rat; format: in vivo; settings: for ED (15 degC temperature lowering): ip, read-out: dose i.p. that lowered the normal temperature of the rat by 15.° C.
Protocol: In addition thereto, the new pyrazole compounds of the invention effect a lowering of the temperature in mammalians: 60 mg/kg of compound A and 25 mg/kg of compound L, administered i.p. to the rat lowered the normal temperature of the rat by 15.° C.

in vivo = settings: mouse, ip
Protocol: (§2) ^3) Dose, at which 50% of the animals died within 72 hours after
administration of the substance

[3] = Analgesic effect: delay in the defense reaction of the mouse upon thermal stimulation of the root of the tail by a heat beam; format: in vivo; settings: mouse, in vivo; LD5 I.P. / ED40 oral; read-out: Therapeutic Index LD5/ED40
Protocol: (§1) The analgesic effect is measured as the mean delay in the defense reaction of the mouse by 20% (ED20) and 40% (ED40) during 2 hours upon thermal stimulation of the root of the tail by a heat beam relative to aminophenazone.

mouse [4] = experiment: as above; format: in vivo; settings: oral; for ED20 / ED40: Mus musculus; for ED20: mean delay in defense reaction by 20% during 2 hours; for ED40: mean delay in defense reaction by 40% during 2 hours; for ED20 Relative / ED40 Relative: relative to aminophenazone
Protocol: as §1

mouse [5] = settings: Table II; I.P.
Protocol: as §2
administration of the substance

[6] = cited from earlier work
[7] = rat, lowering by 15.° C. (so in the source)
[8] = rat, oral, dose for 40% retardation
[9] = guinea pig, oral, dose for 50% retardation
[10] = Toxicity LD50 after a single dose in the mouse, Table I, i.p., 50% of the animals died within 72 hours

| Compound | Retardation of the Carrageenin Edema, Relative Effect ([1]; rat, oral) | Retardation of the UV-Erythema, Relative Effect ([2]; guinea pig, oral) | selectivity ratio [3] | ED20 (mouse [4]) | ED40 (mouse [4]) | LD5 (mouse [5]) | ED40 [1, 8] | ED50 [2, 9] | ED20 Relative (mouse [4]) | ED40 Relative (mouse [4]) | LD50 at 72 h (in vivo; LD50, Table II, I.P.) | LD50 at 72 h (in vivo; [10]) | other results |
| --- | --- | --- | --- | --- | --- | --- | --- | --- | --- | --- | --- | --- | --- |
| O=C(O)Cc1c(-c2ccccc2)nn(-c2ccccc2)c1-c1ccccc1 [A, 1,3,5-triphenyl-pyrazol-4-acetic acid] | 6.0 | 5.3 | – | – | – | – | – | – | – | – | – | – | ED40 ([1]; Rattus norvegicus, po): 5 mg/kg; ED50 ([2]; po): 3 mg/kg; lowering of the normal temperature of the rat (rat; 60 mg/kg i.p.): 15. ° C.; ED (15 degC temperature lowering) (rat; Rattus norvegicus): 60 mg/kg; LD50 at 72 h (in vivo): 312 mg/kg |
| Cc1c(N(C)C)c(=O)n(-c2ccccc2)n1C [Aminophenazone, reference compound] | – | – | 1.9 | 50 mg/kg | 140 mg/kg | 270 mg/kg | – | – | – | – | – | – | ED (15 degC temperature lowering) (rat; [7]): 70 mg/kg; LD50 at 72 h (in vivo): 330 mg/kg |
| O=C(O)Cc1c(-c2ccco2)nn(-c2ccccc2)c1-c1ccco1 [B, 1-phenyl-3,5-di-(2-furyl)-pyrazol-4-acetic acid] | 3.0 | 10.7 | 3.8 | 10 mg/kg | 50 mg/kg | 190 mg/kg | 10 mg/kg | 1.5 mg/kg | 5.0 | 2.8 | 373 mg/kg | 370 mg/kg | – |
| O=C(O)Cc1c(-c2ccccc2)nn(-c2cccnc2)c1-c1ccccc1 [C, 3,5-diphenyl-1-(3-pyridyl)-pyrazol-4-acetic acid] | 1.5 | 6.4 | – | – | – | – | 20 mg/kg | 2.5 mg/kg | – | – | – | 1150 mg/kg | – |
| O=C(O)Cc1cn(-c2ccccc2)nc1-c1ccc(Cl)cc1 [D, 1-phenyl-3-(p-chlorophenyl)-pyrazol-4-acetic acid] | – | – | – | – | – | – | 2.5 mg/kg | 3 mg/kg | – | – | – | – | – |
| CCCCn1nc(C)c(CC(=O)O)c1C [E, 3,5-dimethyl-1-n-butyl-pyrazol-4-acetic acid] | 0.6 | – | – | – | – | – | 50 mg/kg | – | – | – | – | 1400 mg/kg | – |
| COc1ccc(-n2nc(C)c(CC(=O)O)c2C)cc1 [F, 3,5-dimethyl-1-(p-methoxyphenyl)-pyrazol-4-acetic acid] | 0.6 | – | – | – | – | – | 50 mg/kg | – | – | – | – | 1000 mg/kg | – |
| Cc1nn(-c2ccccc2)c(-c2ccccc2)c1CC(=O)O [G, 3-methyl-1,5-diphenyl-pyrazol-4-acetic acid] | – | 0.8 | – | – | – | – | – | 20 mg/kg | – | – | – | 500 mg/kg | – |
| CC(C(=O)O)c1c(-c2ccccc2)nn(-c2ccccc2)c1-c1ccccc1 (stereo not drawn) [H, α-methyl-1,3,5-triphenyl-pyrazol-4-acetic acid] | 1.0 | 3.2 | – | – | – | – | 30 mg/kg | 5 mg/kg | – | – | – | 199 mg/kg | – |
| O=C(O)Cc1cnn(-c2ccccc2)c1-c1ccc(Cl)cc1 [I, 1-phenyl-5-(p-chlorophenyl)-pyrazol-4-acetic acid] | – | – | 2.6 | 50 mg/kg | 70 mg/kg | 180 mg/kg | – | – | 1.0 | 2.0 | 279 mg/kg | – | – |
| COc1ccc2c(c1)c(CC(=O)O)c(C)n2C(=O)c1ccc(Cl)cc1 [Indomethacin, 2-methyl-5-methoxy-1-(p-chlorobenzoyl)-indol-3-acetic acid, reference compound] | 7.5 | 0.8 | – | – | – | – | – | – | – | – | – | – | ED40 ([1]; Rattus norvegicus, po): 4 mg/kg; ED50 ([2]; po): 20 mg/kg; side effects ([6]; Chem. Eng. News 46 (1968)): many undesirable side effects; antiphlogistic, analgesic and antipyretic effectiveness compared with 4-n-butyl-1,2-diphenyl-3,5-dioxopyracoline ([6]; J. Am. Chem. So. 85, 488 (1963)): surpassing in this respect the effectiveness; LD50 at 72 h (in vivo): 45 mg/kg |
| CCCCn1nc(-c2ccccc2)c(CC(=O)O)c1-c1ccccc1 [K, 1-n-butyl-3,5-diphenyl-pyrazol-4-acetic acid] | – | – | 4.5 | 20 mg/kg | 80 mg/kg | 360 mg/kg | – | – | 2.5 | 1.8 | 430 mg/kg | – | – |
| O=C(O)Cc1c(-c2ccccc2)nn(-c2ccc(Cl)cc2)c1-c1ccccc1 [L, 3,5-diphenyl-1-(p-chlorophenyl)-pyrazol-4-acetic acid] | – | – | – | 15 mg/kg | 55 mg/kg | – | – | – | 3.3 | 2.5 | ~80 mg/kg | – | lowering of the normal temperature of the rat (rat; 25 mg/kg i.p.): 1.5 ° C; ED (15 degC temperature lowering) (rat; [7]): 25 mg/kg |
| O=C(O)Cc1c(-c2ccc(Cl)cc2)nn(-c2ccccc2)c1-c1ccc(Cl)cc1 [M, 1-phenyl-3,5-bis-(p-chlorophenyl)-pyrazol-4-acetic acid] | – | – | 1.9 | 7 mg/kg | 20 mg/kg | 38 mg/kg | – | – | 7.1 | 7.0 | 51 mg/kg | – | – |
| COc1cccc(-c2nn(-c3ccccc3)c(-c3cccc(OC)c3)c2CC(=O)O)c1 [N, 1-phenyl-3,5-bis-(m-methoxyphenyl)-pyrazol-4-acetic acid] | – | – | 3.6 | 30 mg/kg | 55 mg/kg | 200 mg/kg | – | – | 1.7 | 2.5 | 312 mg/kg | – | – |
| CCOC(=O)Cc1c(-c2ccccc2)nn(-c2cccc(C(F)(F)F)c2)c1-c1ccccc1 [O, 3,5-diphenyl-1-(α,α,α-trifluoro-m-tolyl)-pyrazol-4-acetic acid-ethyl ester] | – | – | – | 50 mg/kg | 70 mg/kg | – | – | – | 1.0 | 2.0 | – | – | – |
| Cc1nn(-c2ccccc2)c(C)c1CC(N)=O [P, 3,5-dimethyl-1-phenyl-pyrazol-4-acetamide] | – | – | 3.3 | 50 mg/kg | 150 mg/kg | 500 mg/kg | – | – | 1.0 | 0.9 | 500 mg/kg | – | – |
| CCCCC1C(=O)N(c2ccccc2)N(c2ccccc2)C1=O [Phenylbutazon, reference compound] | – | – | – | 150 mg/kg | – | – | 30 mg/kg | 16 mg/kg | – | – | – | – | – |
| Cc1nn(-c2ccccc2)c(C)c1CC#N [Q, 3,5-dimethyl-1-phenyl-pyrazol-4-acetonitrile] | – | – | – | 20 mg/kg | 40 mg/kg | – | – | – | 2.5 | 3.5 | – | – | – |
| COc1ccc(-c2nn(-c3ccccc3)cc2CC#N)cc1 [R, 1-phenyl-3-(p-methoxyphenyl)-pyrazol-4-acetonitrile] | – | – | – | 50 mg/kg | 80 mg/kg | – | – | – | 1.0 | 1.8 | – | – | – |
